Laboratory results as given in US20110136151A1, “ASSAYS FOR DIAGNOSING AND EVALUATING TREATMENT OPTIONS FOR POMPE DISEASE” (AMICUS THERAPEUTICS, INC., priority 2008, published 2011).

What was measured:
[1] = biological target: T1, GAA (Mus musculus, UniProt P70699); assay: GAA levels after longer treatment of wild type mice; type: in vivo; settings: treatment 4-13 weeks
T1 construct: treatment of wild type mice and cynomolgus monkeys for longer periods of time; from tissue; host or cells: wild type mice
T1 sequence (P70699 70-953): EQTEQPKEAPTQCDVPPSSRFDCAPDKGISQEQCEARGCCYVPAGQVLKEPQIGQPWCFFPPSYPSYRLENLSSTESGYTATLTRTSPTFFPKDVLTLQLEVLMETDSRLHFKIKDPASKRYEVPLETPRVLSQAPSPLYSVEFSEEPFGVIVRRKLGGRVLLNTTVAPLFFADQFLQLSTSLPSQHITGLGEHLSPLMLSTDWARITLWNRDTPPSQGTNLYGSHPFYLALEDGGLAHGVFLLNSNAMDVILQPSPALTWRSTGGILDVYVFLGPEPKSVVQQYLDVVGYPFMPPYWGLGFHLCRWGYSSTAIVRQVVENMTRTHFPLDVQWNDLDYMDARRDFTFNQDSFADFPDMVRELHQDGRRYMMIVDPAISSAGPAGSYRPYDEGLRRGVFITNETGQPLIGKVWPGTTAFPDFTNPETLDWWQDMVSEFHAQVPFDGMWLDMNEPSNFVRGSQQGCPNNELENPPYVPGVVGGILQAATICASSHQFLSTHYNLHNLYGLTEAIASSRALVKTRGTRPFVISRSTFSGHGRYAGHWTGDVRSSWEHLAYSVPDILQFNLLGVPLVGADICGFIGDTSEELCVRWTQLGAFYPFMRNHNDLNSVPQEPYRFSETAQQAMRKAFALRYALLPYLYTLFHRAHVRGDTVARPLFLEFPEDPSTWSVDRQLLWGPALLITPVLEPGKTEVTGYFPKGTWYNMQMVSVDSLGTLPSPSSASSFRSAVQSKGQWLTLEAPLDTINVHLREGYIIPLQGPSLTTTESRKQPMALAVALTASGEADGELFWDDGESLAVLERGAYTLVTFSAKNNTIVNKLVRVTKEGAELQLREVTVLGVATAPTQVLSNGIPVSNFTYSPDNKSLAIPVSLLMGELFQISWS

[2] = system: acid α-glucosidase (GAA); assay: Ex vivo GAA enhancement assay in Pompe patient-derived lymphoblast cell lines treated with DNJ (4-MU-alpha-Glc lysate activity); type: cell-based, human; settings: five days
Method: Lymphoblast cell lines were derived from 26 patients and treated with DNJ (0, 30, 100 and 300 μM) for five days. Lymphoblastoid cell lines (LCLs) are leukocyte cultures (primarily B cells) that have been transformed with the Epstein-Barr Virus (EBV) to produce proliferative suspension cultures. Leukocyte cultures were prepared as described in Example 2, and transformed with the EBV to establish the lymphoblast cells. Because well established LCLs can be very fast-growing (even those with genetic and metabolic disorders), their density must be carefully controlled to prevent overcrowding over an extended period. The following protocol details cell seeding density, treatment with a test compound (i.e. DNJ) treatment compound washout, lysing, and assaying of LCLs for the measurement of acid α-glucoside (GAA) with the test compound.
• 1. All cell culture work was performed in a BLII Bio-safety cabinet using sterile techniques. LCL culture was expanded to a T75 by transferring 7e^6-1e^7 cells total to a T75 and add 40 ml 37° C. complete growth media. • 2. Optimal LCL cultures were selected in T75 flasks based on cell density and viability. A cell count was performed on these cultures. Usually a cell density of 1e^6 cells/ml maintains LCLs at the highest viability (90-98% viable). Cells densities higher than 1e^6 cells/ml drastically reduce the overall viability in the culture. • 3. A sterile 50 ml conical centrifuge tube was used to prepare a cell suspension in the appropriate amount of complete growth media to obtain a final cell density of approximately 2.0×10^5 cells/ml at a volume of at least 20 ml. (For example, if the original culture contains 1e^6 cells/ml, 16 ml media should be added to 4 ml of the cell suspension in the staging tube to create a density of 2e^5 cells/ml in a volume of 20 ml.). Cell suspensions were dispensed into four labeled T25 flasks at 5 ml each total volume. This process is repeated for each LCL to be processed. All flasks were placed in a humidified 5% CO2 37° C. incubator overnight. The original T75 cultures can be expanded and returned to the same incubator, if necessary. 5. Treatment with Test Compound • 1. Treatment of the cells with the DNJ test compound was performed 24 hours after the cells were seeded into T25 flasks. • 2. 5 ml of each treatment concentration is required for each cell line. Cell lines were treated with test compound over a concentration range of 0, x, 3x, and 10x test compound. • 3. A 2x stock of test compound solution was prepared in sterile 15 ml or 50 ml centrifuge tubes for each condition and 5 ml solution was added to 5 ml pre-incubated culture. Stock concentrations of 0, 60, 200, and 600 μM DNJ were made; when added to the flasks, the final concentrations were 0, 30, 100, and 300 μM DNJ. • 4. Each set of flasks were marked with the appropriate treatment concentrations, and 5 ml from the corresponding stock suspension were added to each flask. All flasks were returned to the incubator for 5 days.
• 1. After five days (120 hours) of treatment, 100% of the media was exchanged in the cell suspension with compound-free complete media in the following manner; • 2. The contents of each T25 was transferred to a sterile 15 ml conical centrifuge tube that had been pre-numbered to maintain order of concentration range. • 3. After each set was transferred, each T25 was washed with 5 ml blank RPMI 1640 (no phenol red). • 4. The tubes were centrifuged at 21° C. for 10 min at 600 g. During the spin, the blank RPMI was removed from the flasks by aspiration, maintaining sterility. • 5. Following the centrifugation, the supernatant was removed from the tubes by aspiration and the pellets were resuspended in 10 ml complete media. The cell suspensions were transferred back to their respective flasksAll flasks were returned to the 5% CO2 37° C. incubator overnight.

[3] = system: GAA; assay: GAA levels after longer treatment of cynomolgus monkeys; type: in vivo; settings: treatment 4-13 weeks
[4] = 24/26 patient lymphoblast cell lines, DNJ 30-300 μM
[5] = patient cell lines with at least one missense mutation
[6] = patient cell lines with one copy of IVS1 13T>G and one copy of a non-missense null mutation

increase in GAA levels [1]: ≥ 2 fold
Structure (SMILES): OC[C@H]1NCC(O)[C@@H](O)C1O (stereo partly drawn) [DNJ, 1-deoxynojirimycin]
increase in GAA levels, mean [2, 4]: 93% | increase in GAA levels, range [2, 4]: 7-620% | dose-dependent increase in GAA levels, mean [2, 5]: 219% | dose-dependent increase in GAA levels, range [2, 5]: 7-620% | increase in GAA levels, mean [2, 6]: 22% | increase in GAA levels, range [2, 6]: 7-51% | patient cell lines with dose-dependent increase in GAA levels ([2]; patient-derived lymphoblasts, DNJ 0, 30, 100 and 300 μM): 24/26 | increase in GAA levels [3]: ≥ 2 fold
